Reference: patent publication US10681909B2, “Herbicidal triazoles” (FMC Corporation, priority 2014, dated 2020)

Experiments:
barnyardgrass [1] = test: Test A preemergence; assay type: in vivo, Echinochloa crus-galli; details: Echinochloa crus-galli, pre-emergence, 240 h, 0 to 100 scale (0 no effect, 100 complete control), read-out: Plant response rating, Barnyardgrass
Outline: (§1)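 Plant seeds in loam soil blended with sand, then apply test chemical preemergence as a directed soil spray; in parallel, spray potted seedlings (one- to two-leaf, 2 to 10 cm) postemergence. Both treatments use a non-phytotoxic solvent mixture with surfactant.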

foxtail, giant [2] = test: Test A preemergence; assay type: in vivo, Setaria faberii; details: Setaria faberi, pre-emergence, 240 h, 0 to 100 scale (0 no effect, 100 complete control), read-out: Plant response rating, Foxtail, Giant
Outline: as §1

pigweed [3] = test: Test A preemergence; assay type: in vivo, Amaranthus retroflexus; details: Amaranthus retroflexus, pre-emergence, 240 h, 0 to 100 scale (0 no effect, 100 complete control), read-out: Plant response rating, Pigweed
Outline: as §1

barnyardgrass [4] = test: Test A postemergence; assay type: in vivo, Echinochloa crus-galli; details: Echinochloa crus-galli, post-emergence, 240 h, 0 to 100 scale (0 no effect, 100 complete control), approx. 10 d, read-out: Plant response rating, Barnyardgrass
Outline: as §1

foxtail, giant [5] = test: Test A postemergence; assay type: in vivo, Setaria faberii; details: Setaria faberi, post-emergence, 240 h, 0 to 100 scale (0 no effect, 100 complete control), approx. 10 d, read-out: Plant response rating, Foxtail, Giant
Outline: as §1

pigweed [6] = test: Test A postemergence; assay type: in vivo, Amaranthus retroflexus; details: Amaranthus retroflexus, post-emergence, 240 h, 0 to 100 scale (0 no effect, 100 complete control), approx. 10 d, read-out: Plant response rating, Pigweed
Outline: as §1

wheat = test: Test A postemergence; assay type: in vivo, Triticum aestivum; details: Triticum aestivum, post-emergence, 240 h, 0 to 100 scale (0 no effect, 100 complete control), approx. 10 d, read-out: Plant response rating, Wheat
Outline: as §1

corn [7] = test: Test A postemergence; assay type: in vivo, Zea mays; details: Zea mays, post-emergence, 240 h, 0 to 100 scale (0 no effect, 100 complete control), approx. 10 d
Outline: as §1

rice = test: Test B flooded paddy test; assay type: in vivo, Oryza sativa; details: Oryza sativa, 360 h, 125 g ai/ha, applied to paddy water at 2-leaf stage, visual rating after 13 to 15 d, scale 0 (no effect) to 100 (complete control), read-out: Plant response rating, Rice, Flood
Outline: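 Pots were flooded to 3 cm above the soil at treatment, and compounds were applied directly into the paddy water. That depth was held throughout. After 13 to 15 d in a greenhouse, plants were rated visually against untreated controls.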

ryegrass, Italian = test: Test C postemergence; assay type: in vivo, Lolium multiflorum
Outline: (§2)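 Surfactant-containing, non-phytotoxic solvent formulations of each compound were applied either preemergence to seeds in a loam soil–sand blend or postemergence to plants 2 to 18 cm tall (1- to 4-leaf stage). Postemergence plants were grown in peat moss–vermiculite medium.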

wheat (winter wheat) = test: Test C postemergence; assay type: in vivo, Triticum aestivum
Outline: as §2

galium = test: Test C postemergence; assay type: in vivo, Galium aparine
Outline: as §2

corn [8] = test: Test C postemergence; assay type: in vivo, Zea mays
Outline: as §2

crabgrass, large = test: Test C postemergence; assay type: in vivo, Digitaria sanguinalis
Outline: as §2

lambsquarters = test: Test C postemergence; assay type: in vivo, Chenopodium album
Outline: as §2

nutsedge, yellow = test: Test C postemergence; assay type: in vivo, Cyperus esculentus
Outline: as §2

pigweed [9] = test: Test C postemergence; assay type: in vivo, Amaranthus retroflexus
Outline: as §2

soybean = test: Test C postemergence; assay type: in vivo, Glycine max
Outline: as §2

oilseed rape = test: Test C postemergence; assay type: in vivo, Brassica napus
Outline: as §2

waterhemp = test: Test C postemergence; assay type: in vivo, Amaranthus rudis
Outline: as §2

velvetleaf = test: Test C postemergence; assay type: in vivo, Abutilon theophrasti
Outline: as §2

CCOc1nc(-c2ccc(F)cc2)nn1Cc1ccnc(C(F)(F)F)c1 [Compound 8, 4-[[5-ethoxy-3-(4-fluorophenyl)-1H-1,2,4-triazol-1-yl]methyl]-2-(trifluoromethyl)pyridine]
pest or weed control at 125 g/ha (barnyardgrass [1]; 125 g ai/ha): 100%
pest or weed control at 500 g/ha (barnyardgrass [1]; 500 g ai/ha, approx. 10 d): 100%
pest or weed control at 125 g/ha (foxtail, giant [2]; 125 g ai/ha): 100%
pest or weed control at 500 g/ha (foxtail, giant [2]; 500 g ai/ha, approx. 10 d): 100%
pest or weed control at 125 g/ha (pigweed [3]; 125 g ai/ha): 100%
pest or weed control at 500 g/ha (pigweed [3]; 500 g ai/ha, approx. 10 d): 100%
pest or weed control at 125 g/ha (barnyardgrass [4]; 125 g ai/ha): 100%
pest or weed control at 500 g/ha (barnyardgrass [4]; 500 g ai/ha): 100%
pest or weed control at 125 g/ha (foxtail, giant [5]; 125 g ai/ha): 100%
pest or weed control at 500 g/ha (foxtail, giant [5]; 500 g ai/ha): 100%
pest or weed control at 125 g/ha (pigweed [6]; 125 g ai/ha): 100%
pest or weed control at 500 g/ha (pigweed [6]; 500 g ai/ha): 100%
plant injury at 125 g/ha (wheat; 125 g ai/ha): 40%
plant injury at 500 g/ha (wheat; 500 g ai/ha): 100%
Corn plant response rating (crop injury, 0 = no effect, 100 = complete kill) at 125 g/ha (corn [7]; 125 g ai/ha): 50%
Corn plant response rating (crop injury, 0 = no effect, 100 = complete kill) at 500 g/ha (corn [7]; 500 g ai/ha): 90%
plant injury at 125 g/ha (rice): 50%
Plant response rating (scale of 0 to 100 where 0 is no effect and 100 is complete control) (ryegrass, Italian; 31 g ai/ha): 30
Plant response rating (scale of 0 to 100 where 0 is no effect and 100 is complete control) (ryegrass, Italian; 62 g ai/ha): 35
Plant response rating (scale of 0 to 100 where 0 is no effect and 100 is complete control) (ryegrass, Italian; 125 g ai/ha): 35
Plant response rating (scale of 0 to 100 where 0 is no effect and 100 is complete control) (ryegrass, Italian; 250 g ai/ha): 50
Plant response rating (scale of 0 to 100 where 0 is no effect and 100 is complete control) (wheat (winter wheat); 31 g ai/ha): 30
Plant response rating (scale of 0 to 100 where 0 is no effect and 100 is complete control) (wheat (winter wheat); 62 g ai/ha): 35
Plant response rating (scale of 0 to 100 where 0 is no effect and 100 is complete control) (wheat (winter wheat); 125 g ai/ha): 30
Plant response rating (scale of 0 to 100 where 0 is no effect and 100 is complete control) (wheat (winter wheat); 250 g ai/ha): 40
Plant response rating (scale of 0 to 100 where 0 is no effect and 100 is complete control) (galium; 31 g ai/ha): 80
Plant response rating (scale of 0 to 100 where 0 is no effect and 100 is complete control) (galium; 62 g ai/ha): 95
Plant response rating (scale of 0 to 100 where 0 is no effect and 100 is complete control) (galium; 125 g ai/ha): 95
Plant response rating (scale of 0 to 100 where 0 is no effect and 100 is complete control) (galium; 250 g ai/ha): 95
Plant response rating (scale of 0 to 100 where 0 is no effect and 100 is complete control) (corn [8]; 31 g ai/ha): 10
Plant response rating (scale of 0 to 100 where 0 is no effect and 100 is complete control) (corn [8]; 62 g ai/ha): 15
Plant response rating (scale of 0 to 100 where 0 is no effect and 100 is complete control) (corn [8]; 125 g ai/ha): 25
Plant response rating (scale of 0 to 100 where 0 is no effect and 100 is complete control) (corn [8]; 250 g ai/ha): 40
Plant response rating (scale of 0 to 100 where 0 is no effect and 100 is complete control) (crabgrass, large; 31 g ai/ha): 20
Plant response rating (scale of 0 to 100 where 0 is no effect and 100 is complete control) (crabgrass, large; 62 g ai/ha): 35
Plant response rating (scale of 0 to 100 where 0 is no effect and 100 is complete control) (crabgrass, large; 125 g ai/ha): 70
Plant response rating (scale of 0 to 100 where 0 is no effect and 100 is complete control) (crabgrass, large; 250 g ai/ha): 85
Plant response rating (scale of 0 to 100 where 0 is no effect and 100 is complete control) (lambsquarters; 31 g ai/ha): 95
Plant response rating (scale of 0 to 100 where 0 is no effect and 100 is complete control) (lambsquarters; 62 g ai/ha): 98
Plant response rating (scale of 0 to 100 where 0 is no effect and 100 is complete control) (lambsquarters; 125 g ai/ha): 95
Plant response rating (scale of 0 to 100 where 0 is no effect and 100 is complete control) (lambsquarters; 250 g ai/ha): 98
Plant response rating (scale of 0 to 100 where 0 is no effect and 100 is complete control) (nutsedge, yellow; 31 g ai/ha): 5
Plant response rating (scale of 0 to 100 where 0 is no effect and 100 is complete control) (nutsedge, yellow; 62 g ai/ha): 10
Plant response rating (scale of 0 to 100 where 0 is no effect and 100 is complete control) (nutsedge, yellow; 125 g ai/ha): 10
Plant response rating (scale of 0 to 100 where 0 is no effect and 100 is complete control) (nutsedge, yellow; 250 g ai/ha): 10
Plant response rating (scale of 0 to 100 where 0 is no effect and 100 is complete control) (pigweed [9]; 31 g ai/ha): 95
Plant response rating (scale of 0 to 100 where 0 is no effect and 100 is complete control) (pigweed [9]; 62 g ai/ha): 95
Plant response rating (scale of 0 to 100 where 0 is no effect and 100 is complete control) (pigweed [9]; 125 g ai/ha): 98
Plant response rating (scale of 0 to 100 where 0 is no effect and 100 is complete control) (pigweed [9]; 250 g ai/ha): 98
Plant response rating (scale of 0 to 100 where 0 is no effect and 100 is complete control) (soybean; 31 g ai/ha): 65
Plant response rating (scale of 0 to 100 where 0 is no effect and 100 is complete control) (soybean; 62 g ai/ha): 75
Plant response rating (scale of 0 to 100 where 0 is no effect and 100 is complete control) (soybean; 125 g ai/ha): 95
Plant response rating (scale of 0 to 100 where 0 is no effect and 100 is complete control) (soybean; 250 g ai/ha): 85
Plant response rating (scale of 0 to 100 where 0 is no effect and 100 is complete control) (oilseed rape; Oilsee Rape, 250 g ai/ha): 95
Plant response rating (scale of 0 to 100 where 0 is no effect and 100 is complete control) (oilseed rape; Oilseed Rape, 31 g ai/ha): 90
Plant response rating (scale of 0 to 100 where 0 is no effect and 100 is complete control) (oilseed rape; Oilseed Rape, 62 g ai/ha): 95
Plant response rating (scale of 0 to 100 where 0 is no effect and 100 is complete control) (oilseed rape; Oilseed Rape, 125 g ai/ha): 95
Plant response rating (scale of 0 to 100 where 0 is no effect and 100 is complete control) (waterhemp; 31 g ai/ha): 95
Plant response rating (scale of 0 to 100 where 0 is no effect and 100 is complete control) (waterhemp; 62 g ai/ha): 98
Plant response rating (scale of 0 to 100 where 0 is no effect and 100 is complete control) (waterhemp; 125 g ai/ha): 95
Plant response rating (scale of 0 to 100 where 0 is no effect and 100 is complete control) (waterhemp; 250 g ai/ha): 98
Plant response rating (scale of 0 to 100 where 0 is no effect and 100 is complete control) (velvetleaf; 31 g ai/ha): 50
Plant response rating (scale of 0 to 100 where 0 is no effect and 100 is complete control) (velvetleaf; 62 g ai/ha): 70
Plant response rating (scale of 0 to 100 where 0 is no effect and 100 is complete control) (velvetleaf; 125 g ai/ha): 90
Plant response rating (scale of 0 to 100 where 0 is no effect and 100 is complete control) (velvetleaf; 250 g ai/ha): 90
